In patent publication EP0638566B1, “5-Aminoflavone derivatives, their preparation and their use as antibacterial, anti-estrogenic and/or antitumor agent” (KYOWA HAKKO KOGYO CO., LTD., priority 1993, dated 1995):
Converted amounts (≈) assume the structure as drawn. Read-outs that look alike come from different tables or passages of the source.

Legend:
[1] = test system: Human mammary cancer MCF-7 cell; assay: Human mammary cancer MCF-7 cell growth inhibition test (neutral red); assay type: cell-based
Description: Human mammary cancer MCF-7 cell growth inhibition test
Each 0.1 ml of MCF-7 cells which had been prepared to 5 x 10^4/ml using a medium (referred to as Medium B hereinafter) prepared by adding 10% bovine fetal serum, 10^-8M estradiol (manufactured by Sigma), 100 units/ml penicillin and 100 µg/ml streptomycin to RPMI1640 medium was distributed in each well of 96 well-microtiter plate. […] Supernatant was removed, each 0.1 ml of Medium B containing 0.02% neutral red was added to the residue, the mixture was cultured at 37 °C for 1 hour in a CO2 gas incubator and the cells were stained by neutral red dye. Supernatant was removed and the residue was washed once with a physiological saline. Then, the dye was extracted with 0.001N hydrochloric acid/30% ethanol and the absorbance at 550 nm was determined with a microplatereader.

[2] = test system: estrogen-dependent human mammary cancer MCF-7; assay: Antitumor effects against MCF-7 tumor transplanted in nude mice; assay type: in vivo, female BALB/c-nu/nu mice; conditions: Mus musculus, MCF7, 5 days per week for two weeks, read-out: T/C; for response vs control in vivo at 50 mg/kg: dose 50 mg/kg oral
Excerpt: Antitumor effects against estrogen-dependent human mammary cancer MCF-7
The tumor fragment (2mm x 2mm x 2mm) of human hormone dependent mammary cancer MCF-7 was transplanted subcutaneously in the flank of female BALB/c-nu/nu mice (Nihon Crea), 7 to 9 weeks age. […] 3 to 4 Weeks after transplantation, mice of the tumor volume of 25 to 200 mm^3 were selected, and the test compounds were orally administered repeatedly to the groups (5 animals per group) for 5 days per a week, for total two weeks. In addition, estradiol propionate was administered again on the date of initial administration of the test compounds. Length and width of the tumor were determined every day, and the tumor volumes were calculated by means of ellipsoid approximation according to the following equation: […] [formula] The tumor volume at initial administration (Vo) and on the day of judgement (V) was calculated, and the tumor growth rate (V/Vo) was calculated. T/C value was obtained as the ratio of V/Vo value of treated group relative to that of control group.

[3] = test system: estrogen-dependent human mammary cancer Br-10; assay: Antitumor effects against Br-10 tumor transplanted in nude mice; assay type: in vivo, female BALB/c-nu/nu mice; conditions: 5 days per week for two to four weeks
Excerpt: Antitumor effects against estrogen-dependent human mammary cancer Br-10
The tumor fragment (2mm x 2mm x 2mm) of human hormone dependent mammary cancer Br-10 was transplanted subcutaneously in the flank of female BALB/c-nu/nu mice (Nihon Crea), 7 to 9 weeks age. […] 3 to 4 Weeks after transplantation, mice the tumor volume of which increased to 30 to 150 mm^3 were selected, and the test compounds were orally administered repeatedly to the groups (5 animals per group) for 5 days per a week, for total two to four weeks. Estradiol propionate was additionally administered on the date of initial administration of the test compounds and 14 days after the administration. Length and breadth of the tumor were determined every day, and the tumor volumes were calculated by means of ellipsoid approximation according to the above equation. The tumor volume at initial administration (Vo) and on the day of judgement (V) was calculated, and the tumor growth rate (V/Vo) was calculated. T/C value was obtained as the ratio of V/Vo value of treated group relative to that of control group.

[4] = test system: uterus weight of immature mice; assay: Effect against the increase in uterus weight of immature mice; assay type: in vivo, female BALB/c mice; conditions: for Weight of uterus: oral, three days, uteri isolated after four days
Description: The effect against the increase in uterus weight of immature mice
Immature female BALB/c mice, 4 weeks age, were divided into two groups and 50 µg of estradiol was subcutaneously administered to the animals of one group in the chest. The test compounds were repeatedly administered orally to each group (8 animals per group) for three days since the date of estradiol administration. After four days, the uteri were isolated and the weight thereof was measured.
In Table 2, "estradiol (-)" represents an estradiol-untreated group and "estradiol (+)" represents an estradiol-treated group.

Bacillus subtilis #10107 = assay: Antibacterial activity, agar dilution method; assay type: cell-based
Description: Antibacterial activity of compound (I) against Bacillus subtilis #10107 [Minimum Inhibition Concentration(MIC; µg/ml)] is shown in Table 6. Minimum Inhibition Concentration was determined by agar dilution method at pH 7.0.

[5] = MCF7, MCF-7 cells, medium with 10^-8M estradiol, 72 hours, neutral red, absorbance at 550 nm, read-out: IC50
[6] = dose 25 mg/kg oral, judgement day 18
[7] = Minimum Inhibition Concentration, agar dilution method at pH 7.0, read-out: MIC

Cc1c(F)c(N)c2c(=O)cc(-c3ccc(N)c(F)c3)oc2c1F [Compound 1, 5-Amino-2-(4-amino-3-fluorophenyl)-6,8-difluoro-7-methyl-4H-1-benzopyran-4-one]
IC50 [1, 5]: 13 nM | response vs control in vivo at 50 mg/kg ([2]; judgement day 18): 6.4% | T/C [3, 6]: 0.12 | Weight of uterus ([4]; estradiol (+) (50 µg estradiol s.c.), dose 50 mg/kg): 38 mg | Weight of uterus ([4]; estradiol (-) (estradiol-untreated group), dose 50 mg/kg): 17 mg

CN(C)CCOc1c(F)c(N)c2c(=O)cc(-c3ccc(N)c(F)c3)oc2c1F [Compound 9, 5-Amino-2-(4-amino-3-fluorophenyl)-7-(2-dimethylaminoethoxy)-6,8-difluoro-4H-1-benzopyran-4-one]
IC50 ([1]; MCF7, 72 h): 1400 nM | response vs control in vivo at 50 mg/kg ([2]; judgement day 15): 42% | MIC (Bacillus subtilis #10107; pH 7): 52.1 µg/mL (≈ 132 µM)

Nc1ccc(-c2cc(=O)c3c(N)c(F)c(N)c(F)c3o2)cc1F [Compound 16, 5,7-Diamino-2-(4-amino-3-fluorophenyl)-6,8-difluoro-4H-1-benzopyran-4-one]
IC50 ([1]; MCF7, 72 h): 7.7 nM | response vs control in vivo at 12.5 mg/kg ([2]; dose 12.5 mg/kg oral, judgement day 22): 18% | T/C ([3]; dose 12.5 mg/kg oral, judgement day 18): 0.24

CN(C)c1c(F)c(N)c2c(=O)cc(-c3ccc(N)c(F)c3)oc2c1F [Compound 17, 5-Amino-2-(4-amino-3-fluorophenyl)-7-dimethylamino-6,8-difluoro-4H-1-benzopyran-4-one]
IC50 [1, 5]: 39 nM | T/C [3, 6]: 0.22

Cc1c(F)c(NCCCN(C)C)c2c(=O)cc(-c3ccc(N)c(F)c3)oc2c1F [Compound 37, 2-(4-Amino-3-fluorophenyl)-5-[3-(dimethylamino)propylamino]-6,8-difluoro-7-methyl-4H-1-benzopyran-4-one]
MIC (Bacillus subtilis #10107; [7]): 13 µg/mL (≈ 32.1 µM)

CCN(CC)CCCNc1c(F)c(C)c(F)c2oc(-c3ccc(N)c(F)c3)cc(=O)c12 [Compound 38, 2-(4-Amino-3-fluorophenyl)-5-[3-(diethylamino)propylamino]-6,8-difluoro-7-methyl-4H-1-benzopyran-4-one]
MIC (Bacillus subtilis #10107; [7]): 13 µg/mL (≈ 30 µM)

NCc1c(F)c(N)c2c(=O)cc(-c3ccc(N)c(F)c3)oc2c1F [Compound 41, 5-Amino-2-(4-amino-3-fluorophenyl)-7-aminomethyl-6,8-difluoro-4H-1-benzopyran-4-one]
IC50 ([1]; MCF7, 72 h): 26 nM | response vs control in vivo at 50 mg/kg ([2]; judgement day 18): 1.1% | MIC (Bacillus subtilis #10107; pH 7): 3.26 µg/mL (≈ 9.72 µM)

CC/C(=C(\c1ccccc1)c1ccc(OCCN(C)C)cc1)c1ccccc1 [Tamoxifen]
response vs control in vivo at 5 mg/kg ([2]; dose 5 mg/kg oral, judgement day 22): 25% | T/C ([3]; dose 5 mg/kg oral, judgement day 25): 0.58 | Weight of uterus ([4]; estradiol (+) (50 µg estradiol s.c.), dose 5 mg/kg): 47 mg | Weight of uterus ([4]; estradiol (-) (estradiol-untreated group), dose 5 mg/kg): 49 mg | anti-estrogenic activity (increase in the uterus weight observed in an estradiol-treated group) ([4]; result in words, estradiol-treated group, oral administration): weak anti-estrogenic activity | weight of the uterus in an estradiol-untreated group ([4]; result in words, estradiol-untreated group): significantly increases the weight of the uterus
